From ChEMBL document CHEMBL4706683 (J Med Chem, 2021) come the findings set out here.

A word on the IC50: it is the midpoint of a concentration-inhibition curve. As usually defined, the half-life is how long it takes for the measured level to halve. In general, Tmax refers to the time from dosing to the highest level. Broadly, the Cmax is the maximum level reached in the sampled fluid or tissue. What is called AUC(0-t) is exposure summed from dosing to a finite time, without extrapolation to infinity. A higher AUC(0-t) goes with more exposure. A word on the AUC(0-inf): it is total exposure, with the tail of the curve extrapolated.

The source made the active and inactive calls. The calls are words filed in the database; no cut-off is given here.

Data set [1] in a line: Selectivity index, ratio of IC50 for cytotoxicity against human HEK293T cells assessed to IC50 for antiplasmodial activity against synchronized ring stage Plasmodium falciparum 3D7 infected in human erythrocytes. As to conditions: read-out: Ratio IC50. The class given is toxicity, cell-based.
Data set [2] deals with Plasmodium falciparum. The data set is described as follows: Antiplasmodial activity against artemisinin-resistant ring stage Plasmodium falciparum 6320 infected in human erythrocytes assessed as reduction in parasite growth incubated for 72 hrs by Giemsa staining based light microscopic method. The format is functional, organism-based. As to conditions: Plasmodium falciparum, 6320, Erythrocyte.

A short description of data set [3]: Half life in mouse liver microsomes incubated upto 45 mins in presence of NADPH by LC-MS/MS analysis. The format is ADME, Microsome. In general terms: Microsomes from liver hold many membrane-bound enzymes, among them those of drug oxidation.
The test system of data set [4] is Plasmodium falciparum. As to the kind of experiment: Antiplasmodial activity against synchronized ring stage Plasmodium falciparum 3D7 infected in human erythrocytes assessed as new ring stage formation at 10 times IC50 incubated for 12 hrs followed by compound washout and measured at 50 hrs by […] analysis. The class given is functional, organism-based. As to conditions: Erythrocyte.

Data set [5] concerns Plasmodium falciparum. As to the kind of experiment: Inhibition of Plasmodium falciparum HDAC assessed as hyperacetylation of histone H3 at 20 times IC50 incubated for 4 hrs by Western blot analysis.
Data set [6] relates to Plasmodium falciparum. As to the kind of experiment: Antimalarial activity against synchronized schizont stage transgenic Plasmodium falciparum 3D7 with C-terminal 3xTY1-fused HDAC2 knockdown assessed as parasite growth inhibition pretreated with glucosamine followed by compound treatment and incubated for 4 hrs followed by compound washout for thrice and subsequent culturing for 68 hrs by SYBR Green 1 staining based analysis. The format is functional, organism-based.

Data set [7] is described as follows: Inhibition of recombinant full length C-terminal His/FLAG-tagged Plasmodium falciparum HDAC1 expressed in baculovirus infected sf9 insect cells using fluorogenic […] as substrate preincubated for 1.5 hrs followed by substrate addition and measured after 30 mins by HDAC-GloI/II assay.
Data set [8] deals with Histone deacetylase 3/Nuclear receptor corepressor 2 (HDAC3/NCoR2) (Homo sapiens, UniProt O15379). The data set is described as follows: Inhibition of human C-terminal His-tagged HDAC3/N-terminal GST-tagged NCOR2 expressed in baculovirus infected Sf9 cells using Ac-peptide as substrate preincubated for 15 mins followed by substrate and trypsin addition and further incubated for 60 mins.
Sequence of Histone deacetylase 3/Nuclear receptor corepressor 2 (HDAC3/NCoR2) (O15379 whole entry): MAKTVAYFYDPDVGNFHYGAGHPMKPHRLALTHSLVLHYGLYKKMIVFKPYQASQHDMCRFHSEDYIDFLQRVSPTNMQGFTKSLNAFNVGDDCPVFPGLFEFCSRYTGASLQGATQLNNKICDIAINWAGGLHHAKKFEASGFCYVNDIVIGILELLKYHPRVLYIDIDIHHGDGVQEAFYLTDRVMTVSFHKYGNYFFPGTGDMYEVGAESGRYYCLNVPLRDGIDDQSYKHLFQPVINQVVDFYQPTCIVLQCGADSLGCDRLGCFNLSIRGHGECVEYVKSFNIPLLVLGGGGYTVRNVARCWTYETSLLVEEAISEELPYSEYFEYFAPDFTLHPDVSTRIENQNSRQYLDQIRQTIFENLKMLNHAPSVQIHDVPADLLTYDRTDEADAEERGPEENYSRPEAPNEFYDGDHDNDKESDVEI
Sequence of Histone deacetylase 3/Nuclear receptor corepressor 2 (HDAC3/NCoR2) (Q9Y618 whole entry, further chain): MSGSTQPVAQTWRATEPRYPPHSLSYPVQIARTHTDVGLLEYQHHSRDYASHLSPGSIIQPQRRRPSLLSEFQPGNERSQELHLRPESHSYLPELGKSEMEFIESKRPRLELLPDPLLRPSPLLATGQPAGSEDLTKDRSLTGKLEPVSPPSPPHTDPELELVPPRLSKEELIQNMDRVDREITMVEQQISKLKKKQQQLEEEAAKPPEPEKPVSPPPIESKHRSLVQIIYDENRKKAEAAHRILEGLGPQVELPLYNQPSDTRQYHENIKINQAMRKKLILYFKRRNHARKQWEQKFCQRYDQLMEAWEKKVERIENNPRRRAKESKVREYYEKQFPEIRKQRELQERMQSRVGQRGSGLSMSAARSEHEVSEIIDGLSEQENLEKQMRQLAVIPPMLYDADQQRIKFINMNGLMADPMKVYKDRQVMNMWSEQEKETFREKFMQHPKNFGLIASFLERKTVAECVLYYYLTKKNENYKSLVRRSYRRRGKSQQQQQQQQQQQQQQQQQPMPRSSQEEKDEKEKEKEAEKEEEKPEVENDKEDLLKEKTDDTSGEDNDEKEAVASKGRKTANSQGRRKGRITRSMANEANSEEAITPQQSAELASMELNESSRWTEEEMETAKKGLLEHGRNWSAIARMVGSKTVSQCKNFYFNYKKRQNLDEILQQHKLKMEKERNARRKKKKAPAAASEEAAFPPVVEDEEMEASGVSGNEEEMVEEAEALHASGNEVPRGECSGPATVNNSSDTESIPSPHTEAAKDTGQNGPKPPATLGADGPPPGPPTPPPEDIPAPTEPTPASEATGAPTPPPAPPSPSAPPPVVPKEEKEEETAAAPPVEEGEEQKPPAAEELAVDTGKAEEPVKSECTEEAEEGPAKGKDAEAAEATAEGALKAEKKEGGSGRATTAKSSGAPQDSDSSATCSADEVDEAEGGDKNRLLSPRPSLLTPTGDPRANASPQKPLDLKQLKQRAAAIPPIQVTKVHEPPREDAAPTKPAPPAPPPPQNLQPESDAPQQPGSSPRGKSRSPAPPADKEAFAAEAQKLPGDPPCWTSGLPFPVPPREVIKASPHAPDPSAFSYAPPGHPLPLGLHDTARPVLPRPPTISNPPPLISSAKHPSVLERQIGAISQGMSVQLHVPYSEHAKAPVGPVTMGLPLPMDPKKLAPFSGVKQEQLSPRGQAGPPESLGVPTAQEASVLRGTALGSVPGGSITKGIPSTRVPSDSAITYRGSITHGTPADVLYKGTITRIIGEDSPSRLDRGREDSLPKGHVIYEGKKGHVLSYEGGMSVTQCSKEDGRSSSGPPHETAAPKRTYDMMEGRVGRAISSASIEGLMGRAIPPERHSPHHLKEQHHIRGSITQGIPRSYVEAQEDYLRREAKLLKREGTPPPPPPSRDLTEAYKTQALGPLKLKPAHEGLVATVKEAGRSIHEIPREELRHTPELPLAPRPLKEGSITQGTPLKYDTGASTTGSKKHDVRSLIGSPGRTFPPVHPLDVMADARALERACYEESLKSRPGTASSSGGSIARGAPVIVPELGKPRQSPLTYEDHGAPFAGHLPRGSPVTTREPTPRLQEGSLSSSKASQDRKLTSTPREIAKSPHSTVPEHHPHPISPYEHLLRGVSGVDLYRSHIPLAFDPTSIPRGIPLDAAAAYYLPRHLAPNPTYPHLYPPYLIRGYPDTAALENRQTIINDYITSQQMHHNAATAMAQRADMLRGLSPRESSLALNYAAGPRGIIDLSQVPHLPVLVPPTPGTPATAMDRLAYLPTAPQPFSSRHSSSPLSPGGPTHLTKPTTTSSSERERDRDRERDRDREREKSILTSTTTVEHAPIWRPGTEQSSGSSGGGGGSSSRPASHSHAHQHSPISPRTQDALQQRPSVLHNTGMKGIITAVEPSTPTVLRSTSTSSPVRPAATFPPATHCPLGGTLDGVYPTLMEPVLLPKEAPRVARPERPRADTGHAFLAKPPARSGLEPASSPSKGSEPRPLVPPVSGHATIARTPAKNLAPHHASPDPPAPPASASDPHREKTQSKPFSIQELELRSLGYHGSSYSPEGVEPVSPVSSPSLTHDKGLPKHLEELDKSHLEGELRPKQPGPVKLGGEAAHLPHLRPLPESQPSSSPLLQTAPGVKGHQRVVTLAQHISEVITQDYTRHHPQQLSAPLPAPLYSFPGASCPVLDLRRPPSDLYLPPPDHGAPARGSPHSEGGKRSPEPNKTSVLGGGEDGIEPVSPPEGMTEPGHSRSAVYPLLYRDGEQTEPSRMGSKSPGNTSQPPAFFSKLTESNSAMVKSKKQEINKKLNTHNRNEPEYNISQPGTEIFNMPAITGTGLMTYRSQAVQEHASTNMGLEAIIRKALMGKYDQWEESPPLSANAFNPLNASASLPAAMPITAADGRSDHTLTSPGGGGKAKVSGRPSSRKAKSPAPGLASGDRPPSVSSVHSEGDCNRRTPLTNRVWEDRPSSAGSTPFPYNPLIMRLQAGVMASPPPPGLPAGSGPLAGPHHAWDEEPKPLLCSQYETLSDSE

Another data set deals with T1, Histone deacetylase 8 (Homo sapiens, UniProt Q9BY41).
T1 sequence (Q9BY41 whole entry): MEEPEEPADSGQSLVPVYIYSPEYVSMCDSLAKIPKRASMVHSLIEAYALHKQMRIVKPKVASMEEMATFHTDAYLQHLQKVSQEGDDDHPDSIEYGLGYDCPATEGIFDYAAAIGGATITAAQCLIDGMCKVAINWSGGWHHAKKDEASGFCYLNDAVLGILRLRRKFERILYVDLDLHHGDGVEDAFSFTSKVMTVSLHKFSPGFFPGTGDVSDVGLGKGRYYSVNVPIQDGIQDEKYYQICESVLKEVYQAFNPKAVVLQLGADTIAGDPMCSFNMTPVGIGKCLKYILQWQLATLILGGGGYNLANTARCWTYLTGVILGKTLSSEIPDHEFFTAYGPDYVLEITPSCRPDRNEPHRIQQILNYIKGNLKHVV
As to the kind of experiment: Inhibition of full length human C-terminal His-tagged HDAC8 expressed in baculovirus infected Sf9 cells using Ac-peptide as substrate preincubated for 15 mins followed by substrate addition and incubated for 120 mins followed by trypsin addition and further incubated for 240 mins.

The target of data set [9] is T2, Protein deacetylase HDAC6 (Homo sapiens, UniProt Q9UBN7).
T2 sequence (Q9UBN7 whole entry): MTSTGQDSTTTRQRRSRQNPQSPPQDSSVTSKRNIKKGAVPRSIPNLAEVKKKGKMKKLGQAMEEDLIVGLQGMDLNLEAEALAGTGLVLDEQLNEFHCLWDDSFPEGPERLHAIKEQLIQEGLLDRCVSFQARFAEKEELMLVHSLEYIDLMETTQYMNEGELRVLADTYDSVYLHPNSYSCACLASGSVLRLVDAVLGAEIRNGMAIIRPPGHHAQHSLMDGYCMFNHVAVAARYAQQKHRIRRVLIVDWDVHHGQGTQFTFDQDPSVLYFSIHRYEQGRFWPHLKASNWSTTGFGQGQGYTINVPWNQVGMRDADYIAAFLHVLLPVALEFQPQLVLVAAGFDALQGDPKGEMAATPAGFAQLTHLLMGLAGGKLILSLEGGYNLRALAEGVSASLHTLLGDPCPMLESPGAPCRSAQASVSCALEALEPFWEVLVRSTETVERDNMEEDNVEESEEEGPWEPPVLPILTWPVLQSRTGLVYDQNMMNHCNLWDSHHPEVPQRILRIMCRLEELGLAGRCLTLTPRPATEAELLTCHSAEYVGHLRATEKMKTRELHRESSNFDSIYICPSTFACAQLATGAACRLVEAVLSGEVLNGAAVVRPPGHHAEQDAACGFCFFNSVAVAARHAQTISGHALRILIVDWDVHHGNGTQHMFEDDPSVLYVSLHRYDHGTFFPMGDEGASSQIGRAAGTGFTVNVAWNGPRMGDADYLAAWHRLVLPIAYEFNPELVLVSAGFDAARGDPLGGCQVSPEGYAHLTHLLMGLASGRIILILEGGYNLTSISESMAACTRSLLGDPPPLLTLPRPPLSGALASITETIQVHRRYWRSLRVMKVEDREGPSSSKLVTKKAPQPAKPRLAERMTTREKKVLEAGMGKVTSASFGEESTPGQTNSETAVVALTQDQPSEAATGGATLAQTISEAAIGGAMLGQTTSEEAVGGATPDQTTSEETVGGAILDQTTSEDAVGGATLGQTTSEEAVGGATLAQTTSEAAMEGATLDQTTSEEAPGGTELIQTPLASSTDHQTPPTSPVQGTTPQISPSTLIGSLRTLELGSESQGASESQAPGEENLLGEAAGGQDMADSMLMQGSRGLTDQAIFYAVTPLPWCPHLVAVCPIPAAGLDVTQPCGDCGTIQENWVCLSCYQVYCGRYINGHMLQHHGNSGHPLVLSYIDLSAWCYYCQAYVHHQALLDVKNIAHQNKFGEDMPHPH
As to the kind of experiment: Inhibition of human HDAC6 using Ac-peptide as substrate preincubated for 15 mins followed by substrate and trypsin addition and further incubated for 60 mins.

The nature of data set [10]: Tmax in Balb/c mouse at 10 mg/kg, po administered as single dose measured upto 24 hrs by LC-MS/MS analysis. The format is ADME, organism-based. Particulars: in vivo.
A short description of data set [11]: Cmax in Balb/c mouse at 10 mg/kg, po administered as single dose measured upto 24 hrs by LC-MS/MS analysis. On the set-up: route oral, dose 10 mg/kg, time <=24. The format is ADME, organism-based. As to conditions: in vivo.
Data set [12] in a line: Half life in Balb/c mouse at 2 mg/kg, iv administered as single dose measured upto 24 hrs by LC-MS/MS analysis. The class given is ADME, organism-based. Particulars: in vivo.
Data set [13] can be described thus: Half life in Balb/c mouse at 5 mg/kg, ip administered as single dose measured upto 24 hrs by LC-MS/MS analysis. The format is ADME, organism-based. Particulars: in vivo.
The nature of data set [14]: AUC (0 to t) in Balb/c mouse at 2 mg/kg, iv administered as single dose measured upto 24 hrs by LC-MS/MS analysis. The class given is ADME, organism-based. On the set-up: route intravenous, dose 2 mg/kg, time <=24. Particulars: in vivo.
The nature of data set [15]: AUC (0 to infinity) in Balb/c mouse at 2 mg/kg, iv administered as single dose measured up to 24 hrs by LC-MS/MS analysis. The class given is ADME, organism-based. On the set-up: route intravenous, dose 2 mg/kg, time <=24. As to conditions: in vivo.
Data set [16] in a line: Toxicity in Balb/c mouse infected with blood stage Plasmodium yoelii assessed as recrudescence at 10 to 30 mg/kg, ip QD for 5 consecutive days and measured on day 20. The format is organism-based. Particulars: in vivo, 120 h, dose 10-30 mg/kg, time 5 day.

Turning to `Cl.O=C(NO)c1cnc(N2CCC3(CCN(Cc4c[nH]c5ccccc45)C3)CC2)nc1`, the selectivity ratio in data set [1] is 75. The IC50 is 2.9 nM in the data set with Plasmodium falciparum [2]; 52.2 nM with Plasmodium falciparum [6]; 0.343 nM in data set [7]; 3 nM in data set [8]; 16 nM against Histone deacetylase 8; 32 nM in data set [9]. The half-life was 45 min in data set [3] and 43.2 min in data set [12]. Besides, the outcome with Plasmodium falciparum [4] was Active. Besides, the inhibition result with Plasmodium falciparum [5] was “Active”. Besides, the Tmax in [10] turned out to be 15 min. In addition, in data set [11], the highest concentration (Cmax) is 2.49 ng/mL. Further, the t1/2 in data set [13] came to 26.4 min. Moreover, in data set [14], the AUC(0-t) at 24 h is 117 ng·h/mL. In [15], the AUC(0-inf) turned out to be 119 ng·h/mL. Moreover, in [16], the Activity entry is “Toxic”.
